Source: patent US11426374B2, “Modification of the pH and other physical properties of oxaloacetic acid to allow for enhanced stability and multiple delivery systems” (Terra Biological LLC, priority 2015, dated 2022)
“Also recorded” adds a separate entry of the source.

Tests used:
[1] = Yoshikawa 1968; Cash 2013; room temperature for the sodium salt; cited from earlier work
[2] = Lozenge of oxaloacetic acid with a test substance, stability in open environment for one week; conditions: for decomposition of oxaloacetic acid compounded with the ingredient and compressed into a lozenge: examination over a period of one week; for effective way of increasing the pH without degrading the oxaloacetic acid: pH modifier combined with oxaloacetic acid
Description: The Applicant set out on a path of discovery to ascertain what compounds would be stable with oxaloacetic acid—not just for pH modification, but for other physical properties necessary for various delivery systems, such as color stabilization, lozenge dissolve time, lozenge friability, taste, lozenge release from the tablet mold, flow agents, and bulking agents in addition to pH modification. Preparations of oxaloacetic acid was compounded with various ingredients and compressed into a lozenge for examination over a period of one week.
A lozenge is created consisting of 100 mg oxaloacetic acid, and 100 mg of a test substance. The powders are compressed in a tablet mold and released. Each test tablet is placed on a cardboard for one week to ascertain stability in an open environment, such as an open bottle.
The procedure in Example 1 was followed, but with the following individual modifiers to oxaloacetic acid: • Calcium Carbonate (pH Modifier) • Erythitol (Taste Modifier) • Dicalcium Phosphate dihydrate (pH Modifier and lozenge binder) • Vegetable Steric Acid (Release Agent) • Ascorbyl Palmitate (Release Agent)

[3] = pH of solution created by oxaloacetic acid delivered to the mouth; assay type: physicochemical; conditions: delivered to the mouth in powder or lozenge form
Description: Other methods of delivery are transdermal patches, sublingual lozenges, buccal lozenges, inhalation preparations and anal or vaginal suppositories. These methods of delivery can provide higher percentages of the given oxaloacetate to the blood stream for distribution to various organs, and provide the oxaloacetate quicker than the oral route. These delivery methods face a problem with the acidity of oxaloacetic acid. As an example of this, oxaloacetic acid delivered to the mouth in powder or lozenge form creates a solution at a pH of approximately 2.3. This low pH degrades the enamel on the teeth, and provides a large challenge to continued long-term use of oxaloacetate in sublingual lozenges and buccal lozenges. The effect on the teeth is apparent after just 100 mg oxaloacetate is taken either sublingually or via buccal lozenge. The low pH also causes a painful burning sensation in the lungs if inhaled. Vaginal and anal suppositories are also uncomfortable at low pH. Transdermal patches at low pH are also uncomfortable.

[4] = oxaloacetic acid with anhydrous NaOH or KOH or both

Compound	decomposition of oxaloacetic acid compounded with the ingredient and compressed into a lozenge [2]	other results
O=C([O-])CC(=O)C(=O)O.[Na+] [sodium oxaloacetate]		stability [1]: not stable, and quickly degrades at room temperature
Silicon Dioxide	rapid decomposition	
OC[C@@H](O)[C@@H](O)CO [Erythitol]	effective	
O=C(O)CC(O)(CC(=O)O)C(=O)O [Citric Acid]	rapid decomposition	
O=C([O-])[O-].[Ca+2] [Calcium Carbonate]	effective	effective way of increasing the pH without degrading the oxaloacetic acid [2]: effective
Magnesium Stearate	rapid decomposition	
O.O.O=P([O-])([O-])O.[Ca+2] [Dicalcium Phosphate dihydrate]	effective	
[O]=[Mg] [Magnesium Oxide]	rapid decomposition	
[O]=[Ti]=[O] [TiO2]	rapid decomposition	
CCCCCCCCCCCCCCCCCC(=O)O [Vegetable Steric Acid]	effective	
[Na+].[OH-] [NaOH, sodium hydroxide]	rapid decomposition	
O=C(O)CC(=O)C(=O)O [oxaloacetic acid]		pH of solution [3]: approximately 2.3; stability [1]: not stable at all
O=C([O-])O.[K+] [Potassium Bicarbonate]	rapid decomposition	
O=P([O-])([O-])O.[Ca+2] [Calcium Phosphate Dibasic]	rapid decomposition	
[K+].[OH-] [KOH, potassium hydroxide]	rapid decomposition	effective way of increasing the pH without degrading the oxaloacetic acid [2]: not effective; degradation of sublingual tablets after manufacture [4]: degraded within a few days
O=C([O-])O.[Na+] [Sodium bicarbonate]	rapid decomposition	effective way of increasing the pH without degrading the oxaloacetic acid [2]: not effective
CCCCCCCCCCCCCCCC(=O)OC[C@H](O)[C@H]1OC(=O)C(O)=C1O [Ascorbyl Palmitate]	effective	
OC[C@H]1O[C@@](CO)(O[C@H]2O[C@H](CO)[C@@H](O)[C@H](O)[C@H]2O)[C@@H](O)[C@@H]1O [Table sugar]	rapid decomposition	
[Cl-].[Na+] [NaCl]	rapid decomposition	
OC[C@@H](O)[C@H](O)[C@@H](O)CO [Xylitol]	rapid decomposition; also recorded: did not work well	
[Mg+2].[OH-].[OH-] [Magnesium Hydroxide]	rapid decomposition	
O=C([O-])CC(O)(CC(=O)[O-])C(=O)[O-].[K+].[K+].[K+] [Potassium Citrate]	rapid decomposition	
